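96-well plates; 48 h exposure; 5 concentrations. Endpoints by linear interpolation between flanking doses. Not reached: highest tested concentration assigned. GI50 is the concentration that inhibits growth by half. TGI: total growth inhibition.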
Assays:
Assay in all cases: inhibition of tumour cell growth, NCI panel, 48 h
[1] = tested on: HOP-62 NSCLC
[2] = tested on: SF-268 CNS
[3] = tested on: HT29 colon
[4] = tested on: OVCAR-4 ovarian
[5] = tested on: NCI-H522 lung
[6] = tested on: OVCAR-5 ovarian
[7] = tested on: M14 melanoma
[8] = tested on: NCI-H23 lung
[9] = tested on: SW-620 colon
[10] = tested on: UACC-62 melanoma

C=CCC1(c2ccc(OC)cc2)C=CC(=O)CC1 (stereo unspecified)
TGI [1]: > 100 µM
TGI [2]: > 100 µM
TGI [3]: > 100 µM
TGI [4]: > 100 µM
TGI [5]: > 100 µM
TGI [6]: > 100 µM
TGI [7]: > 100 µM
TGI [8]: > 100 µM
TGI [9]: > 100 µM
TGI [10]: > 100 µM

COC(=O)/C(=N\NC(N)=S)C(C(=O)OC)C(=O)C(=O)Nc1ccc(C)cc1 (stereo unspecified)
TGI [1]: > 100 µM
TGI [2]: > 100 µM
TGI [3]: > 100 µM
TGI [4]: > 100 µM
TGI [5]: > 100 µM
TGI [6]: > 100 µM
TGI [7]: > 100 µM
TGI [8]: > 100 µM
TGI [9]: > 100 µM
TGI [10]: > 100 µM

Cc1ccccc1C(=O)c1cc(O)ccc1O
TGI [1]: > 100 µM
TGI [2]: > 100 µM
TGI [3]: > 100 µM
TGI [4]: > 100 µM
TGI [5]: 99.1 µM
TGI [6]: > 100 µM
TGI [7]: > 100 µM
TGI [8]: > 100 µM
TGI [9]: > 100 µM
TGI [10]: > 100 µM

COc1cc(N(CCC#N)CCC#N)ccc1/C(N=Nc1ccc(Cl)cc1)=N/NC(=O)c1cc(Br)ccc1O
GI50 [2]: 35 µg/mL
TGI [2]: > 150 µg/mL
GI50 [3]: 45.5 µg/mL
TGI [3]: > 150 µg/mL
GI50 [4]: 11.1 µg/mL
TGI [4]: 37 µg/mL
GI50 [5]: 56.4 µg/mL
TGI [5]: > 150 µg/mL
GI50 [6]: > 150 µg/mL
TGI [6]: > 150 µg/mL
GI50 [7]: 58.5 µg/mL
TGI [7]: > 150 µg/mL
GI50 [8]: > 150 µg/mL
TGI [8]: > 150 µg/mL
GI50 [9]: > 150 µg/mL
TGI [9]: > 150 µg/mL
GI50 [10]: 112 µg/mL
TGI [10]: > 150 µg/mL

CNCCOC(=O)/C=C1\CC[C@H]2[C@@H]([C@@H](O)C(=O)[C@@H]3[C@]2(C)CC[C@H](O)[C@]3(C)C(=O)OC)[C@H]1C
GI50 [1]: 0.241 µM
TGI [1]: 0.595 µM
GI50 [2]: 0.233 µM
TGI [2]: 0.59 µM
GI50 [3]: 0.443 µM
TGI [3]: 1.58 µM
GI50 [4]: 0.222 µM
TGI [4]: 0.484 µM
GI50 [5]: 0.249 µM
TGI [5]: 0.813 µM
GI50 [6]: 1.18 µM
TGI [6]: 2.68 µM
GI50 [7]: 1.08 µM
TGI [7]: 2.46 µM
GI50 [8]: 0.245 µM
TGI [8]: 0.644 µM
GI50 [9]: 0.318 µM
TGI [9]: 1.14 µM
GI50 [10]: 1.41 µM
TGI [10]: 2.93 µM

N#CNC(=NCc1ccccc1)N(Cc1ccccc1)Cc1ccccc1
TGI [1]: > 31.6 µM
TGI [2]: > 31.6 µM
TGI [4]: > 31.6 µM
TGI [5]: > 31.6 µM
TGI [6]: > 31.6 µM
TGI [7]: > 31.6 µM
TGI [8]: > 31.6 µM
TGI [9]: > 100 µM
TGI [10]: 23.4 µM

CN(C)CCC(/C=C/c1ccccc1)=N\Nc1ccccc1
TGI [1]: 8.93 µM
TGI [2]: 10.4 µM
TGI [3]: 15.4 µM
TGI [4]: 17.1 µM
TGI [5]: 8.98 µM
TGI [6]: 3.97 µM
TGI [7]: 13 µM
TGI [8]: 13.9 µM
TGI [9]: 2.06 µM
TGI [10]: 3.26 µM

CC(=O)ON1CCCC(P(=O)(OCCSC(=O)C(C)(C)C)OCCSC(=O)C(C)(C)C)C1=O (stereo unspecified)
GI50 [1]: 3.21 µM
TGI [1]: > 100 µM
GI50 [2]: 2.29 µM
TGI [2]: 60.9 µM
GI50 [3]: 1.28 µM
TGI [3]: > 100 µM
GI50 [4]: 1.58 µM
TGI [4]: 26.4 µM
GI50 [5]: 0.659 µM
TGI [5]: 20.9 µM
GI50 [6]: 6.46 µM
TGI [6]: > 100 µM
GI50 [7]: 2.11 µM
TGI [7]: 24.9 µM
GI50 [8]: 3.3 µM
TGI [8]: 28.5 µM
GI50 [9]: 1.59 µM
TGI [9]: > 100 µM
GI50 [10]: 1.57 µM
TGI [10]: 8.58 µM

COc1cc(Cl)cc(-c2nn(-c3cccc(NC(=O)c4ccc(N5CCOCC5)c(C(F)(F)F)c4)c3)cc2-c2ccncc2)c1
GI50 [1]: 62.5 µM
TGI [1]: > 100 µM
GI50 [2]: > 100 µM
TGI [2]: > 100 µM
GI50 [3]: 4.09 µM
TGI [3]: 38 µM
GI50 [4]: 39.7 µM
TGI [4]: > 100 µM
GI50 [5]: 4.72 µM
TGI [5]: > 100 µM
GI50 [6]: 32.5 µM
TGI [6]: > 100 µM
GI50 [7]: 7.93 µM
TGI [7]: > 100 µM
GI50 [8]: 30.7 µM
TGI [8]: > 100 µM
GI50 [9]: 29.8 µM
TGI [9]: > 100 µM
GI50 [10]: 9.1 µM
TGI [10]: > 100 µM

COCC(OC)C(CC=C(C#N)C#N)OC (stereo unspecified)
TGI [1]: > 100 µM
TGI [2]: > 100 µM
TGI [3]: > 100 µM
TGI [4]: > 100 µM
TGI [5]: > 100 µM
TGI [6]: > 100 µM
TGI [7]: > 100 µM
TGI [8]: > 100 µM
TGI [9]: > 100 µM
TGI [10]: > 100 µM

CCOC(=O)c1nc2c(OC)nn(O)cc-2c1[N+](=O)[O-]
TGI [1]: > 100 µM
TGI [2]: 94.9 µM
TGI [3]: 29.3 µM
TGI [4]: 34.9 µM
TGI [5]: 36.9 µM
TGI [6]: 33.7 µM
TGI [7]: 36.4 µM
TGI [9]: 29.1 µM
TGI [10]: 40.5 µM

NNC(=O)CNc1cccc(Br)c1
TGI [1]: > 100 µM
TGI [2]: > 100 µM
TGI [3]: > 100 µM
TGI [4]: > 100 µM
TGI [5]: > 100 µM
TGI [6]: > 100 µM
TGI [7]: > 100 µM
TGI [8]: > 100 µM
TGI [9]: > 100 µM
TGI [10]: > 100 µM

COc1c(O)c2c(=O)cc3c4c5c(cc(=O)c6c(O)c(OC)c(CC(C)O)c(c(c1CC(C)O)c24)c65)OCO3 (stereo unspecified)
TGI [1]: 4.01 µM
TGI [2]: 5.97 µM
TGI [3]: 8.58 µM
TGI [4]: 2.74 µM
TGI [5]: 4.38 µM
TGI [6]: 9.13 µM
TGI [7]: 3.57 µM
TGI [8]: 3.1 µM
TGI [9]: 8.65 µM
TGI [10]: 3.79 µM
